Measurements: patent publication US11667919B2, “Targeting cancer-associated long non-coding RNAs” (University of Pittsburgh—Of the Commonwealth System of …, priority 2018, dated 2023)

Columns and labels:
Assay type in all cases: cell-based, human
[1] = system: MCF-7, BT-474, ZR-75-1 and A549 cells; assay: MTT growth inhibition by BET inhibitors in EPIC1 knockdown or overexpressing cells; details: EPIC1 overexpression; MCF-7 and A549 cells
Protocol: For RNA interference, cells were transfected with 40 nM siRNA targeting EPIC1, or control siRNA using Lipofectamine RNAiMAX (Thermo Fisher, #13778150) per the manufacturer's instructions. For quantitative real-time PCR (qRT-PCR) analysis, total RNA was isolated 72 h later using an RNeasy Mini kit (Qiagen, #74104) according to the manufacturer's instructions; cDNAs were synthesized from 0.5 μg of total RNA using a High-Capacity cDNA Reverse Transcription Kit (Applied Biosystems, #4368813). qRT-PCR was performed with Power SYBR Green PCR Master Mix (Applied Biosystems, #4367659) on a QuantStudio 6 Flex Real-Time PCR System (Applied Biosystems). Relative gene expression was determined by ΔΔCt normalized to GAPDH.
Validation of IncRNA-drug predictive pairs in cell lines. MCF-7 cells (MCF-7/Vector and MCF-7/EPIC1) and A549 cells (A549/Vector and A549/EPIC1) stably expressing an empty vector and EPIC1 were established with retroviral particles using the previously published method. […]
The ectopic expression level of EPIC1 in stable cells was confirmed using PCR. […] The absorbance value was measured at 570 nm using an xMark Microplate Spectrophotometer (Bio-Rad) with a reference wavelength of 630 nm and the IC50 of JQ-1 and I-BET-762 on cells was calculated, respectively.

Myc targets = assay: Myc target expression after knockdown (RNA-seq, qRT-PCR, western blot); details: LNA against EPIC1, MCF-7 cells
Protocol: For RNA interference, cells were transfected with 40 nM siRNA targeting EPIC1, Myc, or a control siRNA using Lipofectamine RNAiMAX (ThermoFisher, #13778150) per the manufacturer's instructions. Total RNA was isolated 72 hr later for real-time PCR analysis. The siRNA sequences are SEQ ID NOS: 4-6.
For LNA transfection, cells were transfected with 40 nM LNA oligos targeting EPIC1, and a scramble control using Lipofectamine™ RNAiMAX per the guidelines. The LNA oligos (e.g., SEQ ID NO: 9) were designed and synthesized from Exiqon.
RNA Isolation and Quantitative Real-Time PCR (qRT-PCR) Assays: Total RNA was isolated from cultured cells using an RNeasy Mini kit (Qiagen, #74104) according to the manufacturer's instructions. cDNAs were synthesized from […] of total RNA using a High-Capacity cDNA Reverse Transcription Kit (Applied Biosystems, #4368813). Real-time PCR was performed with Power SYBR Green PCR Master Mix (Applied Biosystems, #4367659) on a QuantStudio 6 Flex Real-Time PCR System (Applied Biosystems). Relative gene expression was determined by DDCt normalized to GAPDH.
Cell lysates were also treated with equal volume of 2× SDS sample buffer and resolved by SDS-PAGE under denaturing conditions and transferred onto PVDF membranes (Bio-Rad, #162-0177). […]

MCF-7 and ZR-75-1 cells = assay: Cell cycle assay (PI staining, flow cytometry); details: LNA against EPIC1, MCF-7 cells
Protocol: For the cell cycle assay, cells were collected, rinsed with PBS, and fixed for a minimum of 2 hr by adding 70% ice-cold ethanol at −20° C. Cells were then sequentially washed once in PBS and BD Pharmingen stain buffer (BD Biosciences, #554656). Cell pellets were resuspended in 0.5 ml of BD Pharmingen PI/RNase staining buffer (BD Biosciences, #550825) and incubated for 15 min at room temperature (RT), and cells were immediately analyzed using an LSRFORTESSA X-20 flow cytometer (BD Biosciences). The data were analyzed with FlowJo software.

Compound	resistance to BET inhibitor promoted by EPIC1 [1]	expression of Myc target genes (Myc targets)	cell-cycle analysis (MCF-7 and ZR-75-1 cells)
CCNC(=O)C[C@@H]1N=C(c2ccc(Cl)cc2)c2cc(OC)ccc2-n2c(C)nnc21 [iBET762, I-BET-762 (iBET762)]	strongly promotes iBET762 and JQ-1 resistance		
(+)-JQ1 [JQ-1]	strongly promotes iBET762 and JQ-1 resistance		
LNA: LNA oligo targeting EPIC1, e.g. SEQ ID NO: 9 (5′-GTCGACTCCTGCCGGA-3′), designed and synthesized from Exiqon (LNA oligo from Exiqon, LNA positions not given here)		curtailed the expression of Myc target genes	significantly caused Gi arrest of MCF-7 cells
